Where “and” joins values, the source holds several entries; their conditions need not be identical. Identical values can stand only once.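 Five compound concentrations were applied to cells in 96-well plates for 48 hours; endpoints were derived by simple linear interpolation of the resulting dose-response curve. GI50 marks 50% less growth. Definition used: TGI = concentration required for complete inhibition of growth.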

Holding throughout (experiment): NCI-60 cell line screen, 48 h
The subject of assay [1] is ACHN renal.
For assay [2], the system named is HCT-116 colon.
For assay [3], the system named is HOP-62 NSCLC.
The subject of assay [4] is K-562 leukemia.
For assay [5], the system named is SF-295 CNS.
Assay [6] has as its system SF-539 CNS.
The test system of assay [7] is SK-MEL-28 melanoma.
In assay [8] the test system is SW-620 colon.
In assay [9] the test system is TK-10 renal.
In assay [10] the test system is LOX IMVI melanoma.

For the compound `COC(=O)C1=C(C(=O)OC)C23C=CC=CC24C(C(=O)OC)=C(C(=O)OC)C4C1C3` (centres undefined), the TGI in [1], in [2], in assay [3], in assay [4], in assay [5] and in [6] was above 100 µM each time. Moreover, the TGI in [7], in assay [8] and in [9] was above 100 µM throughout.

With `COC(=O)[C@]12CC[C@@H](C)[C@H](C)[C@@H]1C1=CC[C@@H]3[C@@]4(C)C(C=O)=C[C@@](C)(COC(C)=O)[C@@H]4[C@H](O)C[C@@]3(C)[C@]1(C)CC2`, the GI50 in assay [1] is 1.92 µM; in [3], 2.74 µM; in assay [4], 3.57 µM; in assay [10], 1.57 µM; in assay [5] it was 1.67 µM; in [6], 1.93 µM. The GI50 in assay [7] was 2.16 µM; in assay [8], 2.66 µM; in [9] it was 2.73 µM. The TGI stood at 4.32 µM in assay [1]; 6.04 µM in assay [3]; 9.77 µM in assay [4]; 2.91 µM in assay [10]; 3.54 µM in [5]; 4.14 µM in assay [6]. Also, the TGI in assay [7] came to 4.92 µM; in [8], 8.21 µM; in assay [9], 8.77 µM.

For `Cc1c(O)c(=O)ccn1C1OC(CO)C(O)C1O` (centres undefined), the TGI in assay [1], in assay [2], in assay [3], in assay [4], in [10] and in [5] was above 100 µM in each case. For the same compound, the TGI in assay [7], in assay [8] and in [9] was above 100 µM each time.

Consider `CC1=C(C(=O)Nc2ccccc2C)C(c2ccc([N+](=O)[O-])cc2)C(C(=O)Nc2ccccc2C)=C(C)N1`, for which the TGI in assay [1], in assay [3], in assay [4], in [10], in assay [5] and in [6] was above 100 µM throughout. For the same compound, the TGI in [7], in assay [8] and in assay [9] was above 100 µM each time.

`C/C=C(\C)C(=O)O[C@@H]1C(O)[C@H]2OC(COC(=O)CCC(=O)CCCCCC[C@H](CCCCC)O[C@@H]3OC(C)[C@H](OC(C)=O)C(O)[C@H]3O2)[C@H]1OC(=O)/C=C/c1ccccc1` (some centres undefined): the GI50 in assay [1] was 0.0175 µM; in [2] it was below 0.01 µM; in assay [3], below 0.0148 µM; in assay [4], below 0.01 µM; in [5], below 0.01 µM; in assay [6] it was below 0.01 µM. Besides, the GI50 was 0.021 µM in assay [7], below 0.0114 µM in [8] and 0.0235 µM in assay [9]. Besides, the TGI was 12.3 µM in assay [1]; above 33.6 µM in assay [2]; 7.18 µM in assay [3]; above 100 µM in [4]; 1.15 µM in [5]; 1.96 µM in [6]. Also, the TGI in assay [7] was 9.59 µM; in [8], above 60 µM; in assay [9] it was 5.98 µM.

Take `N/N=C1\c2ccccc2C2/C(=N\N)c3ccccc3C12` (centres undefined): the TGI in assay [1], in assay [4], in assay [10], in assay [5], in assay [6] and in assay [7] was above 100 µM in each case. In addition, the TGI in assay [8] and in assay [9] was above 100 µM in each case.

In the case of `COc1c2ccccc2c(O)c2c(=O)c(C(=O)O)cn(C)c12`, the GI50 in [1] was above 100 µM; in assay [2], above 100 µM; in assay [3], above 100 µM; in assay [4], above 100 µM; in [10] it was above 100 µM; in [5], 28.8 µM. Also, the GI50 was 35.9 µM in [6], 65 µM in assay [7] and above 100 µM in [8]. Moreover, the TGI in [1], in [2], in assay [3], in assay [4], in [10] and in [5] was above 100 µM throughout. Besides, the TGI in assay [6], in assay [7] and in assay [8] was above 100 µM in each case.

For `C=CCNC1=C(C(=O)OCC)C(=O)CO1`, the TGI in assay [1], in assay [2], in assay [4], in assay [10], in [5] and in assay [6] was above 100 µM in each case. Further, the TGI in assay [7], in assay [8] and in assay [9] was above 100 µM each time.

As for `O=C(O)c1cc2ccccc2c(N=Nc2c([N+](=O)[O-])cc([N+](=O)[O-])cc2S(=O)(=O)O)c1O`, the TGI in assay [1], in [2], in assay [3], in [4], in [10] and in assay [5] was above 100 µM each time. The TGI in assay [7], in [8] and in [9] was above 100 µM each time.

With `CO[C@H]1[C@H](O)[C@H](O[C@H]2CC[C@@]3(C)[C@H](CC[C@@H]4[C@@H]3CC[C@]3(C)[C@@H](C5=CC(=O)OC5)CC[C@]43O)C2)O[C@@H](C)[C@@H]1O`, the TGI is 0.00152 µM in [1]; 0.00229 µM and < 0.0113 µM in assay [2]; 0.0647 µM in assay [4]; 0.00271 µM and < 0.0111 µM in [10]; 0.00224 µM and < 0.0107 µM in [5]; 0.00111 µM in assay [6]. Moreover, the TGI in [7] was 0.00622 µM and < 0.0227 µM; in assay [8], 0.00341 µM; in assay [9], 0.00345 µM. The GI50 in assay [4] was 0.00062 µM.

For the compound `CCc1cccc(C(C)C)c1NC(=O)C(=O)C(C(=O)C(=O)OC)c1nc2ccccc2[nH]c1=O` (centres undefined), the TGI in assay [1], in assay [2], in assay [4], in [10], in assay [5] and in assay [7] was above 100 µM in each case. Besides, the TGI in [8] and in assay [9] was above 100 µM each time.

Regarding `C=C(CN(CC(=C)C(=O)c1ccccc1)C(C)(C)C)C(=O)c1ccccc1`, the TGI in [1] was 21.3 µM; in [2], 26.8 µM; in assay [4], 21.1 µM; in assay [10], 30.8 µM; in [5], above 54.2 µM; in assay [6], 31.5 µM. Also, the figures for the TGI in [7], in [8] and in [9] were 36.8 µM, 9.91 µM and 27 µM, respectively.

As for `N#Cc1c[nH]n2ccnc12`, the TGI in [1], in assay [2], in assay [3], in assay [4], in assay [5] and in assay [7] was above 100 µM each time. Besides, the TGI in [8] and in [9] was above 100 µM in each case.

Consider `CC12O[C@H](c3ccccc3)[C@H](c3ccccc3)N1C(=O)C1(C(=O)OCc3ccccc3)CC12` (some centres undefined), for which the TGI in assay [1], in assay [2], in [3], in [4], in assay [10] and in assay [5] was above 100 µM throughout. For the same compound, the TGI in [8] is above 100 µM.

Consider `O=C1/C(=C/c2ccccc2)SC(=Nc2ccccc2)N1Nc1ccccc1`, for which the GI50 in assay [1] was 23 µM; in assay [2] it was 4.49 µM; in assay [3] it was 23.4 µM; in assay [4] it was 6.08 µM; in assay [5], 16.3 µM; in assay [6], 27.2 µM. The GI50 in assay [7] is 16.2 µM; in assay [8], 17.6 µM; in assay [9] it was 36.5 µM. The TGI in assay [1] was above 100 µM; in [2], above 100 µM; in [3] it was above 100 µM; in assay [4], above 100 µM; in assay [5], above 100 µM; in [6], 99.5 µM. Also, the TGI in assay [7] is 71 µM; in [8] it was above 100 µM; in assay [9] it was above 100 µM.

For `Cc1ccc(S(=O)(=O)Oc2ccc3c4c(c(=O)oc3c2)CCCCC4)cc1`, the GI50 is above 100 µM in assay [1]; 6 µM in [2]; above 100 µM in assay [3]; 3.51 µM in assay [4]; above 100 µM in assay [10]; above 100 µM in assay [5]. The results for the GI50 in assay [6], in assay [7] and in [9] were 6.77 µM, above 100 µM and above 100 µM, respectively. Also, the TGI in assay [1], in assay [2], in assay [3], in [4], in assay [10] and in [5] was above 100 µM each time. The TGI in assay [6], in assay [7] and in assay [9] was above 100 µM throughout.

Turning to `CC[C@@]1(O)C(=O)OCc2c1cc1n(c2=O)Cc2cc3cc(OC)ccc3nc2-1`, the GI50 in assay [2] was 0.0442 µM; in [4], 0.0571 µM and 0.0344 µM; in assay [10] it was 0.0125 µM; in assay [7], 0.894 µM; in assay [8] it was 0.0391 µM. Moreover, the TGI in assay [2] is 0.573 µM and 0.481 µM; in assay [3], 0.948 µM; in [4] it was above 100 µM; in assay [10] it was 0.173 µM and 0.298 µM and 0.105 µM; in [5] it was 0.0933 µM and 0.8 µM; in assay [6] it was 0.0361 µM and 0.0962 µM. This compound also registered a TGI in [8] of 4.79 µM.

Regarding `N#C/C(=C\c1ccc(Br)cc1)n1nnc2cccc(F)c21`, the GI50 was 1.41 µM in [1]; 2.38 µM in assay [3]; 0.386 µM in assay [4]; 0.614 µM in assay [10]; 1.92 µM in assay [5]; 1.86 µM in assay [6]. The GI50 is 1.87 µM in assay [7], 0.475 µM in [8] and 1.91 µM in assay [9]. For the same compound, the TGI is 3.48 µM in assay [1]; 8.49 µM in assay [3]; above 100 µM in assay [4]; 1.92 µM in assay [10]; 3.88 µM in assay [5]; 3.45 µM in assay [6]. Besides, the TGI in assay [7] is 3.97 µM; in [8], 1.94 µM; in assay [9], 3.55 µM.

As to `COc1ncc(-c2nc3c(n2C(C)C)[C@H](c2ccc(Cl)cc2)N(c2cc(Cl)cn(C)c2=O)C3=O)c(OC)n1`, the GI50 was 15.2 µM in [1]; 22 µM in assay [2]; 90 µM in assay [3]; 11.2 µM in assay [10]; 36.8 µM in assay [5]; 64.5 µM in [6]. The figures for the GI50 in [7], in [8] and in [9] were 42.2 µM, 63.7 µM and 36.8 µM, respectively. Besides, the TGI in assay [1], in assay [2], in [3], in [10], in assay [5] and in [6] was above 100 µM throughout. Besides, the TGI in assay [7], in assay [8] and in assay [9] was above 100 µM throughout.

For the compound `COC(=O)c1c2c(c(C)[n+]([O-])c1C)C(=O)C=C(NCc1cccc(OC)c1)C2=O`, the GI50 is 1.01 µM in assay [1]; 1.58 µM in assay [3]; 0.37 µM in assay [4]; 0.249 µM in [10]; 0.772 µM in [5]; 0.879 µM in assay [6]. Also, the GI50 in assay [8] was 0.318 µM. In addition, the TGI in assay [1] stood at 2.19 µM; in assay [3], 3.39 µM; in assay [4], 6.51 µM; in assay [10] it was 1.44 µM; in assay [5] it was 2.1 µM; in [6], 2.11 µM. Further, the TGI in assay [8] came to 1.26 µM.

`Cc1cc(N(CCC#N)CCC#N)ccc1/C=C(\NC(=O)/C=C/c1ccccc1)NC(=O)Nc1ccc(Cl)cc1`: the TGI in assay [1], in assay [2], in [4], in assay [10], in assay [5] and in assay [6] was above 100 µM each time. For the same compound, the TGI in [7] and in assay [8] was above 100 µM in each case.

As for `Cc1cc(Cc2cc(C)c(NC(=O)C(=O)C3C(=O)NC(=S)NC3=O)c(C(C)C)c2)cc(C(C)C)c1NC(=O)C(=O)C1C(=O)NC(=S)NC1=O`, the TGI in assay [1], in assay [2], in assay [3], in assay [4], in assay [10] and in [5] was above 100 µM throughout. For the same compound, the TGI in assay [7], in assay [8] and in assay [9] was above 100 µM in each case.

These data come from PubChem BioAssay (NCI).
